Measurements published in ChEMBL document CHEMBL3525943, “Regiospecific and stereospecific triangulation of the structures of metabolites formed by sequential metabolism at multiple prochiral centers” (Drug Metab Dispos, 2012).

What was measured:
[1] = Drug excretion in male Sprague-Dawley rat urine treated with [14C]-AMG 221 at 2 mg/kg, po measured over 24 hrs by LC-MS/HPLC radiometric analysis; assay type: ADME, organism-based; parameters: dose 2 mg/kg, route oral; details: in vivo
[2] = Retention time of the compound in Beagle dog urine treated with [14C]-AMG 221 at 2 mg/kg, po measured over 24 hrs by LC-MS/HPLC radiometric analysis; assay type: ADME, organism-based, Canis lupus familiaris; parameters: dose 2 mg/kg, route oral; details: in vivo
Liver microsome [3] = test: Retention time of the compound in rat liver microsomes treated with (S)-2-((1S,2S,4R)-bicyclo[2.2.1]heptan-2-ylamino)-5-(2-hydroxypropan-2-yl)-5-methylthiazol-4(5H)-one at 20 uM preincubated for 5 mins followed by NADPH addition measured after 60 mins by LC-MS/MS analysis; assay type: ADME; details: 1 h
[4] = Drug excretion in female Sprague-Dawley rat feces treated with [14C]-AMG 221 at 2 mg/kg, po measured over 24 hrs by LC-MS/HPLC radiometric analysis; assay type: ADME, organism-based; parameters: dose 2 mg/kg, route oral; details: in vivo
[5] = Drug excretion in female Sprague-Dawley rat urine treated with [14C]-AMG 221 at 2 mg/kg, po measured over 24 hrs by LC-MS/HPLC radiometric analysis; assay type: ADME, organism-based; parameters: dose 2 mg/kg, route oral; details: in vivo
Rattus norvegicus = test: Total drug recovery in female Sprague-Dawley rat treated with [14C]-AMG 221 at 2 mg/kg, po measured over 48 hrs by liquid scintillation counting analysis; assay type: ADME, organism-based; parameters: dose 2 mg/kg, route oral; details: in vivo
Liver microsome [6] = test: Drug level in rat liver microsomes treated with (S)-2-((1S,2S,4R,6R)-6-hydroxybicyclo[2.2.1]heptan-2-ylamino)-5-isopropyl-5-methylthiazol-4(5H)-one at 20 uM preincubated for 5 mins followed by NADPH addition measured after 60 mins by LC-MS/MS analysis; assay type: ADME; details: 1 h
[7] = Drug excretion in male Sprague-Dawley rat feces treated with [14C]-AMG 221 at 2 mg/kg, po measured over 24 hrs by LC-MS/HPLC radiometric analysis; assay type: ADME, organism-based; parameters: dose 2 mg/kg, route oral; details: in vivo
[8] = Retention time of the compound in Sprague-Dawley rat urine treated with [14C]-AMG 221 at 2 mg/kg, po measured over 24 hrs by LC-MS/HPLC radiometric analysis; assay type: ADME, organism-based; parameters: dose 2 mg/kg, route oral; details: in vivo
[9] = Drug level in Sprague-Dawley rat urine treated with [14C]-AMG 221 at 2 mg/kg, po measured over 24 hrs by LC-MS/HPLC radiometric analysis; assay type: ADME, organism-based; parameters: dose 2 mg/kg, route oral; details: in vivo
[10] = Drug level in Sprague-Dawley rat urine treated with [14C]-(S)-2-((1R,2S,4R,5S)-5-hydroxybicyclo[2.2.1]heptan-2-ylamino)-5-isopropyl-5-methylthiazol-4(5H)-one at 5 mg/kg, po measured over 48 hrs by LC-MS/MS analysis; assay type: ADME, organism-based; parameters: dose 5 mg/kg, route oral; details: in vivo

Drug excretion [1] [%]	Retention_time [2] [min]	Retention_time (Liver microsome [3]) [min]	Drug excretion [4] [%]	Drug excretion [5] [%]	Drug recovery (Rattus norvegicus) [%]	Drug metabolism (Liver microsome [6])	Drug excretion [7] [%]	Retention_time [8] [min]	Drug metabolism [9]	Drug metabolism [10]	Structure (SMILES)
8.3	15.1	15.7	24	24	0.9	metabolite_detected	8.3	15.1	metabolite_detected	–	C[C@@H](CO)[C@]1(C)SC(N[C@H]2C[C@H]3C[C@@H]2[C@H](O)C3)=NC1=O
–	20.6	–	–	–	0.2	–	–	–	–	metabolite_detected	CC(C)[C@]1(C)SC(N[C@H]2C[C@H]3C[C@@H]2C[C@@H]3O[C@@H]2O[C@H](C(=O)O)[C@@H](O)[C@H](O)[C@H]2O)=NC1=O
